Assay results published in patent US9265781B2, “Process for producing a particulate composition comprising anhydrous crystalline 2-O-alpha-D-glucosyl-L-ascorbic acid” (HAYASHIBARA CO., LTD., priority 2009, dated 2016).

Assay: Accelerated heat-treatment test for browning (Experiment 4)
Format: physicochemical
Conditions: 150 mg heated at 80° C. for three days, dissolved in 3 ml water, absorbance at 400 nm
From the text: Accordingly, in this experiment, Test samples 1 and 12 to 16, which had been used in the antecedent Experiments, were examined for the relationship between the coloration and the total content of L-ascorbic acid plus D-glucose, the content of L-ascorbic acid, or the reducing power of the whole particulate composition by conducting an accelerated test on heat treatment according to the following procedures:
One hundred and fifty milligrams of each of the test samples was weighed and placed in a 10-ml test tube with a screw cap, and the test tubes in a closed condition of their opening parts with the screw caps were placed in “DRYING-OVEN SA310”, a product name of an oven commercialized by Masuda Corp., Osaka, Japan, and heated at 80° C. for three days. […] The resulting solutions were measured for absorbance at a wavelength of 400 nm using “UV-2400PC”, a product name of a spectrophotometer commercialized by Shimadzu Corp., Kyoto, Japan. The degree of coloration caused by heating was judged based on the following two criteria: When the absorbance at a wavelength of 400 nm is less than 0.50, it is judged as “Not browned or substantially not browned” (−); and when the absorbance at a wavelength of 400 nm is 0.50 or higher, it is judged as “Browned” (+).

For `O=C1O[C@H]([C@@H](O)CO)C(O)=C1O[C@H]1O[C@H](CO)[C@@H](O)[C@H](O)[C@H]1O` [Test sample 16, 2-O-α-D-glucosyl-L-ascorbic acid], which Browning property is on record?
The Browning property was “+ (when the absorbance at a wavelength of 400 nm is 0.50 or higher, it is judged as “Browned” (+))”.
